In patent publication US20230220021A1, “CYCLIC PEPTIDE INHIBITORS OF PSD-95 AND USES THEREOF” (University of Copenhagen, priority 2020, published 2023):
pKi: −log10 of the molar value. Where a SMILES comes first, the peptide text is derived from it. [ ]: non-standard residue; d: D form.

Legend:
PSD-95-PDZ2 [1] = target: T1, PSD-95-PDZ2 (Homo sapiens, UniProt P78352); assay: Fluorescence polarization (FP) competition assay against cyclic nNOS TAMRA probe; format: binding; conditions: for pKi / effect on interaction with PSD-95-PDZ2 (in words) / fold lowered (decreased) binding affinity of the cyclic peptide: FP competition; for pKi: cyclic nNOS TAMRA probe, mean of triplicates, N.B. = not binding, read-out: Ki; for Relative Ki (Ki mut/Ki WT): FP inhibition constant normalized to WT value; for fold lowered (decreased) binding affinity of the cyclic peptide: relative to unsubstituted cyclic peptide
T1 construct: 7xHis (N); made in house; host or cells: Escherichia coli B21 pLys (for the mutants, 'as previously described')

PSD-95-PDZ2 [2] = target: T2, PSD-95-PDZ2 (Homo sapiens, UniProt P78352, V178C); assay: SPOT peptide array screening with TAMRA labelled PSD-95-PDZ2; format: binding; conditions: SPOT array, TAMRA labelled PSD-95-PDZ2-V178C, normalized to WT
T2 construct: screened with the TAMRA labelled PSD-95-PDZ2-V178C domain; 7xHis (N); made in house
Description: SPOT peptide array synthesis. To generate the cyclic nNOSβ-hairpin arrays, we used the Intavis MultiPep spotter (Intavis Bioanalytical instruments). The membranes employed in this assay were SynthoPlan APEG CE (standard amino-modified acid stable sellulose membrane with a PEG-spacer), 10×15 cm with a loading of 400 nmol cm^−2. Solutions of 0.3 M Fmoc-AA-OH and 0.3 M Oxyma Pure were prepared in N-methyl-2-pyrrolidone (NMP). The activator solution consisted of 0.3 M DIC and 0.3 M of 2,4,6-trimethylpyridine (Collidine) in NMP. The capping solution consisted of a solution of 1 M acetic anhydride and 0.05 M of 4-dimethylaminopyridine (DMAP) in NMP. The deprotection solution consisted of 20% piperidine in NMP. AA couplings were performed 1 h,4 times. Deprotection of the Fmoc groups was performed 15min,2 times. Membrane washing between couplings or deprotections was performed with NMP and ethanol. Elongation of peptides in cellulose membrane was started by coupling first the Fmoc-PEG(9)-OH (Iris Biotech) and the subsequent mixture of Fmoc-Gly-OH (25%) and Boc-Gly-OH (75%) to lower the total loading of the membrane. Afterwards, the resin was capped with the capping solution and extensively washed and soaked in bromophenol blue (BPB) as a quality control to reveal the SPOTS with a functional amino group. Then, we coupled the quasi-orthogonal group Fmoc-Glu-PP, and carried out the rest of the synthesis until peptide completion. The cellulose bound linear peptides were finally treated with a solution of 95% DCM, 3% TIPS and 2% TFA 3 times, 20 min. to remove the quasi-orthogonal group. Afterwards, the membrane was washed 5 times with DCM and neutralized with 5% DIPEA in DCM. The membrane was then washed 5 more times with DCM, 5 times with NMP and cyclized with 0.3M PyAOP and 0.3M of DIPEA in DMF for 3 h or overnight. Finally, the membrane was dried with DCM and the side-chain protecting groups were cleaved with the standard deprotection cocktail (95% TFA, 2.5% H2O and 2.5% TIPS) or with reagent K [TFA 82.5%, phenol 5%, H2O 5%, thioanisole 5% and 1,2-ethanedithiol (EDT) 2.5%] for 3 h.
SPOT membrane screening. Membranes were incubated with PBS pH 7.2+0.5% bovine serum albumin (BSA) for 1 h. After the incubation period, the membrane was dried and scanned with an Amershan Typhoon scanner, at 400V, Cy3 wavelength (532 nm). A TIF file of the screening and a file with the blank values were generated using the Image Quant software. Afterwards, a solution of 50 nM of TAMRA labelled PSD-95-PDZ2 domain was prepared in PBS pH 7.2+0.5% BSA and was added to the membrane. The membrane was left incubating in a Polymax 1040 rocking table for 1 h protected from the light. Passed the incubation time, the excess of labelled protein was removed by washing the membrane 3 times with PBS+0.5% BSA. Finally, the membrane fluorescence values were measured with the Amershan Typhoon scanner at 400V, Cy3 wavelength (532 nm). Using the Image Quant software, the TIF image of the screening and a file with the fluorescence values of the peptides with the TAMRA labelled PSD-95-PDZ2 were generated. The blank was then subtracted from the fluorescence values of the peptides screened against the TAMRA labelled PSD-95-PDZ2.
A deep mutational scan was performed on the WT scaffold, exchanging each AA to the remaining 19 L-AAs. Each array contained three copies of the individual peptides as technical replicates. Additionally, three controls were included in the design: the cyclic nNOS β-hairpin WT control (positive control), a linear nNOS peptide (cyclization control) and a cyclic nNOS β-hairpin with a F111V substitution (negative control previously tested in FP competition assays). For array screening, a mutation in PSD-95-PDZ2 residue V178 (PSD-95-PDZ2-V178C) was introduced, which was subsequently labelled with TAMRA maleimide. […]

Row | pKi (PSD-95-PDZ2 [1]) | effect on interaction with PSD-95-PDZ2 (in words) (PSD-95-PDZ2 [1]) | Molecule | other results
1 | 5.70 | – | CC[C@H](C)[C@@H]1NC(=O)[C@H]([C@@H](C)O)NC(=O)[C@H](CCCCN)NC(=O)[C@@H]2CCCN2C(=O)[C@H]([C@@H](C)O)NC(=O)CNC(=O)[C@H](CC(=O)O)NC(=O)CNC(=O)[C@H](Cc2c[nH]cn2)NC(=O)[C@H](Cc2ccccc2)NC(=O)[C@H]([C@@H](C)O)NC(=O)[C@H]([C@@H](C)O)NC(=O)[C@H](CCC(=O)O)NC(=O)[C@H](CC(C)C)NC(=O)[C@H](Cc2c[nH]cn2)NC(=O)[C@H]([C@@H](C)O)NC(=O)[C@H](CCC(N)=O)NC(=O)CNC(=O)[C@H]2CCCN2C(=O)[C@H](CCC(N)=O)NC(=O)[C@H]([C@@H](C)O)NC(=O)[C@H](C(C)C)NC(=O)[C@H](CCCNC(=N)N)NC1=O [compound 20] (cyclo(THLETTFHGDGTPKTIRVTQ[dP]GQ)) | Relative Ki (Ki mut/Ki WT) (PSD-95-PDZ2 [1]): 1.32; Normalized SPOT fluorescence (Mut/WT) (PSD-95-PDZ2 [2]): 1.49
2 | – | – | CC[C@H](C)[C@@H]1NC(=O)[C@H]([C@@H](C)O)NC(=O)[C@H](CCCCN)NC(=O)[C@@H]2CCCN2C(=O)[C@H]([C@@H](C)O)NC(=O)CNC(=O)[C@H](CC(=O)O)NC(=O)CNC(=O)[C@H]([C@@H](C)O)NC(=O)[C@H](C(C)C)NC(=O)[C@H]([C@@H](C)O)NC(=O)[C@H]([C@@H](C)O)NC(=O)[C@H](CCC(=O)O)NC(=O)[C@H](CC(C)C)NC(=O)[C@H](Cc2c[nH]cn2)NC(=O)[C@H]([C@@H](C)O)NC(=O)[C@H](CCC(N)=O)NC(=O)CNC(=O)[C@H]2CCCN2C(=O)[C@H](CCC(N)=O)NC(=O)[C@H]([C@@H](C)O)NC(=O)[C@H](C(C)C)NC(=O)[C@H](CCCNC(=N)N)NC1=O [compound 21] (cyclo(THLETTVTGDGTPKTIRVTQ[dP]GQ)) | Relative Ki (Ki mut/Ki WT) (PSD-95-PDZ2 [1]): 51.60; Normalized SPOT fluorescence (Mut/WT) (PSD-95-PDZ2 [2]): 0.05
3 | 6.59 | – | CC[C@H](C)[C@@H]1NC(=O)[C@H]([C@@H](C)O)NC(=O)[C@H](CCCCN)NC(=O)[C@@H]2CCCN2C(=O)[C@H](CCC(=O)O)NC(=O)[C@H](C)NC(=O)[C@H](CC(=O)O)NC(=O)CNC(=O)[C@H](Cc2c[nH]c3ccccc23)NC(=O)[C@H](Cc2ccccc2)NC(=O)[C@H]([C@@H](C)O)NC(=O)[C@H]([C@@H](C)O)NC(=O)[C@H](CCC(=O)O)NC(=O)[C@H](CC(C)C)NC(=O)[C@H](Cc2c[nH]cn2)NC(=O)[C@H]([C@@H](C)O)NC(=O)[C@H](CCC(N)=O)NC(=O)CNC(=O)[C@H]2CCCN2C(=O)[C@H](CCC(N)=O)NC(=O)[C@H]([C@@H](C)O)NC(=O)[C@H](C(C)C)NC(=O)[C@H](CCCNC(=N)N)NC1=O [compound 134] (cyclo(THLETTFWGDAEPKTIRVTQ[dP]GQ)) | –
4 | 6.72 | – | CC[C@H](C)[C@@H]1NC(=O)[C@H]([C@@H](C)O)NC(=O)[C@H](CCCCN)NC(=O)[C@@H]2CCCN2C(=O)[C@H](CCC(=O)O)NC(=O)CNC(=O)[C@@H](CC(=O)O)NC(=O)CNC(=O)[C@H](Cc2c[nH]c3ccccc23)NC(=O)[C@H](Cc2ccccc2)NC(=O)[C@H]([C@@H](C)O)NC(=O)[C@H]([C@@H](C)O)NC(=O)[C@H](CCC(=O)O)NC(=O)[C@H](CC(C)C)NC(=O)[C@H](Cc2c[nH]cn2)NC(=O)[C@H]([C@@H](C)O)NC(=O)[C@H](CCC(N)=O)NC(=O)CNC(=O)[C@H]2CCCN2C(=O)[C@H](CCC(N)=O)NC(=O)[C@H]([C@@H](C)O)NC(=O)[C@H](C(C)C)NC(=O)[C@H](CCCNC(=N)N)NC1=O [compound 135] (cyclo(THLETTFWG[dD]GEPKTIRVTQ[dP]GQ)) | –
5 | – | abolishes binding | Cyclo-(THLEATFTGDGTPKTIRVTQpG(Qα)) (cyclo(THLEATFTGDGTPKTIRVTQ[dP]GQ); SMILES CC[C@H](C)[C@@H]1NC(=O)[C@H]([C@@H](C)O)NC(=O)[C@H](CCCCN)NC(=O)[C@@H]2CCCN2C(=O)[C@H]([C@@H](C)O)NC(=O)CNC(=O)[C@H](CC(=O)O)NC(=O)CNC(=O)[C@H]([C@@H](C)O)NC(=O)[C@H](Cc2ccccc2)NC(=O)[C@H]([C@@H](C)O)NC(=O)[C@H](C)NC(=O)[C@H](CCC(=O)O)NC(=O)[C@H](CC(C)C)NC(=O)[C@H](Cc2c[nH]cn2)NC(=O)[C@H]([C@@H](C)O)NC(=O)[C@H](CCC(N)=O)NC(=O)CNC(=O)[C@H]2CCCN2C(=O)[C@H](CCC(N)=O)NC(=O)[C@H]([C@@H](C)O)NC(=O)[C@H](C(C)C)NC(=O)[C@H](CCCNC(=N)N)NC1=O) [SEQ ID NO: 59] | –
6 | – | abolish the interaction | Cyclo-(THLEAlloTTFTGDGTPKTIRVTQpG(Qα)) (THLEXTFTGDGTPKTIRVTQPGQ; cyclic; allo-threonine at 109; D-proline; cyclized peptide; (5)..(5) X is AlloT; (21)..(21) is D-AA) [SEQ ID NO: 80] | –
7 | – | – | Cyclo-(THLESTFTGDGTPKTIRVTQpG(Qα)) (cyclo(THLESTFTGDGTPKTIRVTQ[dP]GQ); SMILES CC[C@H](C)[C@@H]1NC(=O)[C@H]([C@@H](C)O)NC(=O)[C@H](CCCCN)NC(=O)[C@@H]2CCCN2C(=O)[C@H]([C@@H](C)O)NC(=O)CNC(=O)[C@H](CC(=O)O)NC(=O)CNC(=O)[C@H]([C@@H](C)O)NC(=O)[C@H](Cc2ccccc2)NC(=O)[C@H]([C@@H](C)O)NC(=O)[C@H](CO)NC(=O)[C@H](CCC(=O)O)NC(=O)[C@H](CC(C)C)NC(=O)[C@H](Cc2c[nH]cn2)NC(=O)[C@H]([C@@H](C)O)NC(=O)[C@H](CCC(N)=O)NC(=O)CNC(=O)[C@H]2CCCN2C(=O)[C@H](CCC(N)=O)NC(=O)[C@H]([C@@H](C)O)NC(=O)[C@H](C(C)C)NC(=O)[C@H](CCCNC(=N)N)NC1=O) [SEQ ID NO: 52] | fold lowered (decreased) binding affinity of the cyclic peptide (PSD-95-PDZ2 [1]): 7 fold
8 | – | abolished the interaction | Cyclo-(THLETT ? -Me-FTGDGTPKTIRVTQpG(Qα)) (THLETTXTGDGTPKTIRVTQPGQ; cyclic; N-methyl F111; D-proline; cyclized peptide; (7)..(7) X is N-Me-F; (21)..(21) is D-AA) [SEQ ID NO: 90] | –
9 | – | – | Cyclo-(THLETTFTGDGTPKSIRVTQpG(Qα)) (cyclo(THLETTFTGDGTPKSIRVTQ[dP]GQ); SMILES CC[C@H](C)[C@@H]1NC(=O)[C@H](CO)NC(=O)[C@H](CCCCN)NC(=O)[C@@H]2CCCN2C(=O)[C@H]([C@@H](C)O)NC(=O)CNC(=O)[C@H](CC(=O)O)NC(=O)CNC(=O)[C@H]([C@@H](C)O)NC(=O)[C@H](Cc2ccccc2)NC(=O)[C@H]([C@@H](C)O)NC(=O)[C@H]([C@@H](C)O)NC(=O)[C@H](CCC(=O)O)NC(=O)[C@H](CC(C)C)NC(=O)[C@H](Cc2c[nH]cn2)NC(=O)[C@H]([C@@H](C)O)NC(=O)[C@H](CCC(N)=O)NC(=O)CNC(=O)[C@H]2CCCN2C(=O)[C@H](CCC(N)=O)NC(=O)[C@H]([C@@H](C)O)NC(=O)[C@H](C(C)C)NC(=O)[C@H](CCCNC(=N)N)NC1=O) [SEQ ID NO: 50] | fold lowered (decreased) binding affinity of the cyclic peptide (PSD-95-PDZ2 [1]): 25 fold
